Data published in patent publication US7691563B2, “Method for alleviating pain using sphingosine-1-phosphate and related compounds, and assays for identifying such compounds” (Sanofi-Aventis Pharma GmbH, priority 2003, dated 2010).
Values joined by “and” are separate entries in the source; they are usually repeats but may differ in a detail not shown here. Equal values may be shown once.

Key:
[1] = test system: adenylyl cyclase (AC); assay: AC activity of HeLa cell lysates after treatment of cells; format: cell-based, human; conditions: for effect on serum-induced inhibition of Gαs- and forskolin-stimulated AC activity: HeLa cells transfected with ODN (3 μM), 30 minutes 10% FBS; for effect of pre-treatment on S1P inhibition of Gαs-stimulated AC activity: HeLa cells, 0.5 μM S1P, PTX 1 μg/μl 24 hours, inhibitors 10 μM 20 minutes, ODN 3 μM, 60 minutes S1P
Protocol: Panel B: Adenylyl cyclase activity of HeLa cell lysates was measured in the absence and presence of serum as described in Materials and Methods section. The Gsα* (80 nM; grey bars)- and forskolin (100 μM; black bars)-stimulated specific activities of ACV were 124±10 pmol/mg/min and 464±89 pmol/min/mg, respectively. The basal activity was 11.75±2 pmol/mg/min. The mean ±SE of at least 2 experiments each done in triplicates is shown. Student T test: *p<0.001.
Panel E: Serum-starved HeLa cells were treated with sense, antisense, and 3M-as ODNs as described above. After 24 hours the cells were incubated for 30 minutes with 10% FBS. Cells were harvested and AC activity in presence of Gαs* (80 nM; grey bars) and forskolin (100 μM; black bars) was determined as described above. Data from at least 3 experiments measured in triplicates are presented as the mean±SEM. Student T test: *p<0.01, **p<0.05.
Panel B: Serum-starved HeLa cells were treated for varying times with 0.5 μM S1P. Cells were harvested and AC activity in presence of 80 nM Gαs* was determined as described in Material and Methods. Data from at least 4 experiments measured in triplicates are presented as the mean ±SE.
Panel C: Serum-starved HeLa cells were treated with sense, antisense, and 3M-as ODNs as described in the Materials and Methods section. After 24 hours the cells were incubated for the indicated times with 0.5 μM S1P. Cells were harvested and AC activity in presence of Gαs* (80 nM) was determined as described above. Data are presented as the mean ±SEM of three determinations.
Panel A: Serum-starved HeLa cells were treated with 0.5 μM S1P for 3 (grey bars) or 60 (black bars) minutes. Prior incubation with S1P the cells were incubated for 24 hours with […] pertussis toxin (PTX). AC activity in was determined presence of 80 nM Gαs*. Data from at least 2 experiments measured in triplicates are presented as the mean ±SE.
Panel B: Serum-starved HeLa cells were treated with 0.5 μM S1P. Prior incubation with S1P the cells were incubated for 20 minutes with 10 μM U73122, R031-8220, BAPTA-AM or U0126. AC activity in was determined presence of 80 nM Gαs*. Data from at least 2 experiments measured in triplicates are presented as the mean ±SE.
Spinal cords were lysed in 25 mM Hepes, pH 7.4, 1 mM EGTA and cell membranes were prepared as described by Kassis and Fishman. Aliquots were stored at −80° C. until use. AC activity assays were performed in a volume of 100 μl for 15 min at room temperature in the presence of 100 μM MgCl2 as previously described (Patel et al., 2002). Gsα* (80 nM) or forskolin (100 μM) were used to stimulate AC enzyme activity in membranes (10 μg protein).
The sequences of the oligodeoxynucleotides (ODNs) were chosen as published previously (Scholich et al., 2001). Sense: 5′-CTGTTCATGCCGGTT-3′, antisense: 5′-AACCGGCATGAACAG-3′, and antisense ODN harboring three mutations (3M-as; mutations are underlined): 5′-AATCCGTATGAACAC-3′. HeLa-cells were plated on 35 mm dishes (300,000 cells) and grown in DMEM medium (Gibco, Karlsruhe, Germany) containing 10% FBS and 1% penicillin/streptoMycin for 24 hours. The ODNs (3 μM each) were introduced into the cells by transfections using Tfx20 (Promega, Madison, Wis.) in 1 ml serum-free medium according to the instructions of the manufacturer. Two hours later, 1 ml DMEM (Gibco, Karlsruhe, Germany) containing 10% FBS was added. The cells were then incubated for 6 hours. Then the medium was exchanged against serum-free DMEM (Gibco, Karlsruhe, Germany), followed by an incubation for 16 hours in serum-free DMEM (Gibco, Karlsruhe, Germany) before being treated with 10% serum or […] S1P. The cells were then used for Western blots by adding boiling 1× Laemmli buffer or they were havested for AC activity assays as described above.

[2] = test system: PAM; assay: PAM translocation to the plasma membrane in HeLa cells (immunofluorescence); format: cell-based, human; conditions: HeLa cells, 0.5 μM S1P; PTX 1 μg/μl 24 hours; GF109203X 1 μM, others 10 μM, 20 minutes
Protocol: Panel B: HeLa cells were treated with 10% fetal bovine serum for different times and stained with anti-PAM antibodies to monitor the subcellular localization.
Panel B: HeLa cells were treated with 0.5 μM S1P for 30 minutes and stained with anti-PAM antibodies to monitor the subcellular localization.
Panel C: Time dependence of PAM translocation in HeLa cells. Serum-starved HeLa cells were treated with 0.5 μM S1P for different times and stained with anti-PAM antibodies to monitor the subcellular localization.
Panel D: HeLa cells were treated with 0.5 μM S1P for 20 minutes and stained with anti-PAM antibodies to monitor the subcellular localization. Prior S1P-treatment were the cells incubated for 24 hours with […] pertussis toxin (PTX), for 20 minutes with, 1 μM GF109203X, 10 μM U0126, BAPTA-AM, U73122 or Ro31-223.
To monitor distribution of PAM in HeLa cells, cells were grown on glass coverslips in DMEM with 10% FBS and 1% penicillin/streptoMycin (Gibco, Karlsruhe, Germany). To visualize translocation of PAM HeLa, cells were serum starved overnight and subsequently treated with 10% serum for 2 hours. Wherever indicated, cells were preincubated for 30 minutes in the presence of different concentrations of inhibitors. The cells were fixed in 4% paraformaldehyde (Sigma, Taufkirchen, Germany) in PBS for 10 minutes and then permeablized in 0.1% Triton X-100 for another 5 minutes. The coverslips were blocked for 1 hour in 3% BSA in PBS and then incubated for 1 hour with anti-PAM antibody (1:50 dilution). This was followed by incubation with FITC-labeled goat anti-rabbit antibody in PBS containing 3% BSA. The cells were then washed with PBS and mounted. For the analysis confocal (BioRad, Hercules, Calif.) and regular flourescence microscopes (Nikon, Duesseldorf, Germany) were used.

[3] = test system: adenylyl cyclase (AC); assay: AC activity assay, purified PAM added to spinal cord or DRG lysates; format: biochemical, rat; conditions: 30 nM PAM
Protocol: Panel B: Lysates of spinal cords or DRG (10 μg) were assayed for AC activity in the presence of 80 nM Gαs as described in Material and Methods. The mean ±SEM of at least 3 determinations done in triplicates is shown.
PAM purification was performed with some modifications as published previously (Scholich et al. 2001). Shortly, HeLa cells were grown in DMEM medium with 10% fetal bovine serum and 1% penicillin/streptoMycin. Confluent cells of forty 150 mm dishes were harvested with 1×PBS, 1 mM EDTA and pelleted for 5 minutes at 400×g. The cells were resuspended in TED buffer (50 mM Tris-HCl, pH 8.0, 1 mM EDTA, 1 mM DTT) containing 125 mM NaCl, 20 μg/ml of aprotinin, 20 μg/ml leupeptin, 1 mM benzamidine, 5 μg/ml soybean trypsin inhibitor and lysed by 2×5 seconds of sonication. The homogenate was centrifuged at 27000×g for 30 min at 4° C., and the supernatant was loaded on a Q-Sepharose XK16 column (Amersham, Pharmacia, Piscataway, N.J.) and eluted with a gradient of 150-350 mM NaCl in TED according to instructions of the manufacturer. The fractions were analyzed by Western blotting according to standard procedures; positive fractions were pooled and the NaCl concentration adjusted to 1 M. The protein was then loaded on a Phenyl-Sepharose XK16 column (Amersham, Pharmacia, Piscataway, N.J.) and washed with 300 mM NaCl in TED according to instructions of the manufacturer. The flow through and wash fractions contained PAM. They were pooled and the buffer exchanged for the aforementioned TED buffer containing 100 mM NaCl using Centricon 50 (Amicon, Beverly, Mass.) according to the manufacturer's instructions. The protein was then loaded on a MonoS 5/5 FPLC column (Amersham, Pharmacia, Piscataway, N.J.) and washed with the loading buffer (100 mM NaCl in TED) according to instructions of the manufacturer. The flow through was collected and applied to a Mono Q 5/5 FPLC column (Amersham, Pharmacia, Piscataway, N.J.). The protein was eluted with a gradient from 150-400 mM NaCl in TED. […]

Row | Molecule | effect of pre-treatment on S1P-induced PAM translocation [2] | effect of pre-treatment on S1P inhibition of Gαs-stimulated AC activity [1] | further results
1 | 3M-as: antisense ODN harboring three mutations, HeLa cells, 5′-AATCCGTATGAACAC-3′ (DNA, backbone and methylation of C not given here) | – | – | effect on serum-induced inhibition of Gαs- and forskolin-stimulated AC activity [1]: no influence
2 | CC(=O)OCOC(=O)CN(CC(=O)OCOC(C)=O)c1ccccc1OCCOc1ccccc1N(CC(=O)OCOC(C)=O)CC(=O)OCOC(C)=O [BAPTA-AM, reference compound] | did not interfere | – | –
3 | CN(C)CCCn1cc(C2=C(c3c[nH]c4ccccc34)C(=O)NC2=O)c2ccccc21 [GF109203X, reference compound] | eliminated | – | –
4 | Cn1cc(C2=C(c3cn(CCCSC(=N)N)c4ccccc34)C(=O)NC2=O)c2ccccc21 [RO 31-8220] | – | eliminated | –
5 | COc1ccc2c(c1)CC[C@@H]1[C@@H]2CC[C@]2(C)[C@@H](NCCCCCCN3C(=O)C=CC3=O)CC[C@@H]12 [U73122, reference compound] | abolished | abolished | –
6 | C=C[C@@]1(C)CC(=O)[C@]2(O)[C@@]3(C)[C@@H](O)CCC(C)(C)[C@@H]3[C@H](O)[C@H](OC(C)=O)[C@@]2(C)O1 [forskolin] | – | – | forskolin-stimulated specific activity of AC ([1]; HeLa cell lysates, 100 μM forskolin): 464 ± 89 pmol/min/mg
7 | PAM: Protein Associated with Myc, giant protein of 510 kDa, full length purified from HeLa cells | – | – | decrease of Gαs-stimulated AC activity ([3]; DRG lysates): 32%; inhibition of Gαs-stimulated AC activity ([3]; spinal cord lysates of animals treated for 1 hour with formalin): 25%; decrease of Gαs-stimulated AC activity ([3]; spinal cord lysates of control animals): 50% and 49%
8 | Pertussis toxin [reference compound] | eliminated | eliminated | –
9 | sense ODN: sense ODN used in HeLa cells, 5′-CTGTTCATGCCGGTT-3′ (DNA, backbone and methylation of C not given here) | – | – | effect on serum-induced inhibition of Gαs- and forskolin-stimulated AC activity [1]: no influence
